Structures are written as SMILES. Active and inactive are the calls of the source.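 How the source made its calls: active means AC50 no more than tenfold above the top dose tested, or full inhibition at every dose with a flat fit (cut at about 19 µM in these data); inconclusive means flat curve fit with inhibition between 30% and 70%, or poor fit; inactive means AC50 more than tenfold above the top dose tested.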 Where only a bound is given, the exact number is not on record here.

Broadly, the AC50 is the concentration giving half of the maximal activity seen.

The assay concerns HMLE_sh_eGFP viability, CellTiter-Glo luminescence, 72 h. Nature of the assay: viability loss of HMLE_sh_eGFP cells – cell-based, luminescence, counter-screen for HMLE_sh_ECad selective toxicity project, dose response (AID 463074;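 further: counterscreen control line to flag general toxicity for the HMLE_sh_ECad screen; potency for loss of viability as luminescence drops below DMSO wells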). (Counterscreens check selectivity or assay interference.)
`CC1=NOC(=O)/C1=C\c1ccc(-c2cc(Cl)ccc2Cl)o1`: the AC50 was 1.06 µM.

Regarding `O=[N+]([O-])c1cccc(-c2csc(N/N=C/c3cccc(O)c3)n2)c1`, the AC50 was 3.7 µM.

Consider `CC(C)c1ccc2c(c1)c(SC(C)(C)C)c(CC(C)(C)C(=O)O)n2Cc1ccc(Cl)cc1`, for which the AC50 was 2 µM.

On to `Cc1ccc(C(=O)/C=C/c2cc(Br)cc(Br)c2O)o1`, for which the half-maximal activity concentration (AC50) was 3.57 µM. With `O=C(CC1Nc2ccccc2NC1=O)Nc1ccccc1` (stereo not drawn) the figure was 1.04 µM; with `CCNC(=S)N/N=C/c1cn(Cc2ccc(F)cc2)c2ccccc12`, 10.9 µM; with `O=c1[nH]c2ccccc2n1C1CCN(CCCC(c2ccc(F)cc2)c2ccc(F)cc2)CC1`, 6.27 µM. For `NC(=O)CC(NC(=O)Cc1ccc(Br)cc1)c1ccc(NC2CCCCCC2)c([N+](=O)[O-])c1` (stereo not drawn), the AC50 is 4.88 µM. The value for `O=C(Cn1ncc(Cl)c(Cl)c1=O)NCC1CCCCC1` was 5.74 µM; that for `COc1ccc(NS(=O)(=O)c2cc(-c3cnc(C4CC4)o3)ccc2C)cc1` was 0.968 µM.

Turning to `COc1ccc(C(=O)NC(=S)Nc2ccccc2N2CCCCC2)cc1[N+](=O)[O-]`, the concentration at half-maximal activity (AC50) is 0.574 µM.

Consider `C[C@]12CC[C@H](O)C[C@H]1CC[C@@H]1[C@@H]2CC[C@]2(C)[C@@H](C3=CC(=O)OC3)CC[C@]12O`, for which the AC50 is 0.234 µM. With `O=C(Nc1ccn(Cc2ccccc2F)n1)c1ccc(COc2ccc(Cl)cc2Cl)o1`, the AC50 is > 19.5 µM (inactive). On to `O=C(N/N=C/c1ccc(O)cc1O)/C(=C/c1ccccc1)CCO`, for which the AC50 is 7.22 µM.

With `COc1ccc(C(=O)C2CCCN(C3CSCCSC3)C2)c(OC)c1` (stereo not drawn), the AC50 was 4.74 µM. In the case of `Cc1ccc(C(=O)NC(=C(Cl)Cl)S(=O)(=O)c2ccc(C)cc2)cc1`, the AC50 is 5.16 µM. `CC(=O)Oc1ccc2c(=O)c(-c3nc4ccccc4s3)coc2c1`: the AC50 is 9.34 µM. In the case of `CCC1(C)Cc2c(sc3nc(SC)n(Cc4ccccc4)c(=O)c23)CO1` (stereo not drawn), the AC50 is 2.77 µM. With `Cc1ccccc1-c1cc(C(=O)Nc2sc(C(=O)OC(C)C)c(C)c2C#N)c2ccccc2n1`, the AC50 is 2.66 µM.

As for `Cc1sc2ncnc(N3CCN(CCOc4ccc(Cl)cc4)CC3)c2c1C`, the AC50 is 7.16 µM. Turning to `COC(=O)C1=C(c2cccc(C#N)c2)C[C@@H]2CC[C@H]1N2C(=O)NC1Cc2ccccc2C1`, the AC50 is > 19.5 µM (inactive).

In the case of `CCOC(=O)c1ccc(NC(=O)c2nc[nH]c2C(=O)NCCCCNC(=O)c2[nH]cnc2C(=O)Nc2ccc(C(=O)OCC)cc2)cc1`, the AC50 is 3.99 µM. The value for `Clc1ccc2c(N/N=C/c3cccc(Br)c3)ccnc2c1` was 4.06 µM. With `CCc1ccc(-c2cc(C(=O)N/N=C/c3c[nH]c4ccccc34)[nH]n2)cc1`, the AC50 was 12.6 µM.

As for `CC(NCc1ccc(OCc2ccc(Cl)cc2)cc1)C(O)c1ccccc1` (stereo not drawn), the AC50 is 3.57 µM.

For `COc1c(OC(C)=O)ccc(/C=C/c2ccc3cccc(OCc4ccccc4)c3n2)c1[N+](=O)[O-]`, the AC50 was 3.37 µM. Take `Cc1ccc(-c2nc(NCc3ccco3)c3ccccc3n2)cc1`: the AC50 is 12.4 µM.

Consider `COc1ccc(CN2C(=O)c3cccnc3C2Nc2cc(Cl)ccc2OC)cc1` (stereo not drawn), for which the AC50 was > 19.5 µM (inactive).

Turning to `CC1(C)C=C2[C@H]3CC[C@@H]4[C@@]5(C)CCC(=O)C(C)(C)[C@@H]5CC[C@@]4(C)[C@]3(C)CC[C@@]2(C(=O)O)CC1`, the AC50 is 3.58 µM.

As to `COc1ccc(CN2CCC(N(CCc3ccccc3)Cc3ccccc3)CC2)c(OC)c1`, the AC50 was 5.43 µM. Take `CC1CCN(c2nc(Cl)nc(Nc3ccc([N+](=O)[O-])cc3)n2)CC1`: the AC50 is 3.41 µM.

In the case of `CC(=O)NC(c1cc(Cl)c2cccnc2c1O)C1CC1` (stereo not drawn), the AC50 was 9.04 µM.

`C=CCn1cccc(/C=C/C(=O)c2ccc(C(C)(C)C)cc2)c1=S`: the AC50 was 6.19 µM.

For the compound `c1ccc(-c2sc3ccccc3c2-c2ccc(OCCN3CCOCC3)cc2)cc1`, the AC50 is 3.24 µM. `CCC(C)c1ccccc1NC(=O)COC(=O)c1ccc2[nH]c3c(c2c1)CCCC3` (stereo not drawn): the AC50 is 3.4 µM. With `OC(CNCCc1ccc(C(F)(F)F)cc1)COc1cccc2ccccc12` (stereo not drawn) the figure was 3.54 µM. The value for `CCc1ccc(NC(=O)c2cc3c(C)nc4ccccc4c3o2)cc1` was 11.9 µM; that for `C[C@H](CO)N1C[C@H](C)[C@H](CN(C)Cc2ccc(-c3ccccc3)cc2)Oc2ccc(NS(=O)(=O)c3ccccc3)cc2CC1=O` was 4.74 µM; that for `O=C(CCc1ccc(Oc2cc([N+](=O)[O-])cc([N+](=O)[O-])c2)cc1)N1CCCCCC1` was 8.85 µM. On to `Cc1cc(C)cc(NC(=O)CSc2ccc(-c3ccccn3)nn2)c1`, for which the AC50 is 3.61 µM. The value for `COc1cc(N/N=C(\C)c2ccc(O)c(C)c2)nc(-c2ccccc2)n1` was 4.75 µM; that for `CCOc1ccc(NC(=O)Nc2ccc(Cc3ccncc3)cc2)cc1` was 7.84 µM. With `CC1CCCN(CCCNC(=O)c2cc3c(Cl)nc4ccccc4c3s2)C1` (stereo not drawn) the figure was 8.14 µM; with `O=C1NC(=O)N(CCc2ccc(F)cc2)C(=O)/C1=C/C=C/c1ccccc1`, 3.91 µM; with `O=C(NCCCN1CCOCC1)c1ccc(CSc2ccc(Cl)cc2)cc1`, 7.77 µM. Consider `C=CCCC(=O)Nc1nc(C)c(-c2csc(Nc3ccc(Cl)cc3)n2)s1`, for which the AC50 was 3.83 µM.

`Cc1ccccc1CNc1ccc(C(CC(N)=O)NC(=O)c2ccc(Br)cc2)cc1[N+](=O)[O-]` (stereo not drawn): the AC50 was 3.96 µM. Regarding `CCc1c(C2(O)CCCCC2)[nH]c2cc(C(F)(F)F)ccc12`, the AC50 is 3.15 µM. The value for `O=C(Nc1ccc(S(=O)(=O)N2CCOCC2)cc1)c1ccc([N+](=O)[O-])o1` was 5.38 µM; that for `O=C(Nc1ccon1)c1nc[nH]c1C(=O)NCc1ccccc1` was 1.77 µM.

`CC1(C)C=Cc2c(ccc3c2OC[C@@H](c2ccc(O)cc2O)C3)O1`: the concentration at half-maximal activity (AC50) was 7.27 µM. The value for `Cc1cn(-c2cc(C(=O)Nc3ccc(C)c(NC(=O)C(=O)c4c[nH]c5ccccc45)c3)cc(C(F)(F)F)c2)cn1` was 3.5 µM; that for `COc1cccc(Cn2nnc(C(=O)Nc3cc(Cl)ccc3OC)c2N)c1` was 0.935 µM. Take `O/N=C/c1cc(Cl)ccc1OCc1ccccc1Cl`: the AC50 was 6.08 µM.

Take `CC(C)(C)c1ccc(O)c(O)c1`: the concentration at half-maximal activity (AC50) was 13.3 µM. Take `COc1cc(/C=C(\C#N)C(=O)NC2CCCCC2C)ccc1OS(=O)(=O)c1ccc(C)cc1` (stereo not drawn): the AC50 was 6.69 µM. The value for `O=C1NC(=O)N(Cc2ccccc2)C(=O)/C1=C\C=C\c1ccco1` was 1.93 µM. Turning to `O=C(Nc1ccccc1)C1=C[C@@H](c2csc3ccccc23)C[C@@H](OCc2ccc(CO)cc2)O1`, the AC50 is 4.11 µM.

As for `C=C(Br)Cn1c(CCCC)nc2ccccc21`, the AC50 was 0.645 µM. Regarding `C=C(CC[C@@H](O)C(C)(C)O)[C@H]1CC[C@]2(C)[C@@H]1CCC1[C@@]3(C)CCC(=O)C(C)(C)C3CC[C@]12C` (stereo partly drawn), the AC50 was 2.52 µM.

Regarding `c1ccc(-c2cc(-c3ccncc3)nc3ccc4ccccc4c23)cc1`, the AC50 was 3.61 µM.

Turning to `CCN1CCN(c2cc(-c3ccccc3)nc3cc(-c4cccc(F)c4)nn23)CC1`, the AC50 is 5.65 µM. The value for `CN(C)CCOc1ccc(C(C)(C)c2ccccc2)cc1` was 5.19 µM; that for `O=C(Nc1cccc(Cl)c1)Nc1csc([N+](=O)[O-])c1` was 5.64 µM; that for `O=C(NC(=S)Nc1cccc(Cl)c1N1CCCCC1)c1ccc2c(c1)OCCO2` was 1.52 µM.

As for `O=C(CCc1ccccc1)Nc1sc2c(c1C(=O)O)CCCC2`, the AC50 is > 19.5 µM (inactive).

Regarding `Cc1ccc(N2C(=O)C3C4C=CC(CC4)C3C2=O)cc1Br` (stereo not drawn), the AC50 was 1.38 µM.

As to `CCCCCc1cc(=O)oc2c(C(CCN3CCCCC3)c3cc(OC)c(OC)c(OC)c3)c(OC)cc(OC)c12` (stereo not drawn), the AC50 is 6.95 µM. As to `CCN1C(=O)C(=Cc2cccc(OC)c2Oc2ccc([N+](=O)[O-])cc2[N+](=O)[O-])SC1=S`, the concentration at half-maximal activity (AC50) is 2.27 µM. With `CC(C)(C)OC(=O)[C@H](Cc1ccccc1)NC(=O)c1[nH]cnc1C(=O)Nc1ccc(Cl)cc1` the figure was 3.92 µM; with `Cc1ccc(S[C@@H](CCN2CC[C@H](C(C)(C)C)CCC2=O)c2ccccc2)cc1`, 3.57 µM; with `Cc1ccc(-c2nnc(Sc3nc4ccccc4o3)c3ccccc23)cc1`, 6.74 µM. Take `Cc1ccc(NC(=S)NC(NC(=O)Cc2cccc3ccccc23)C(Cl)(Cl)Cl)cc1` (stereo not drawn): the AC50 is 3.41 µM. As to `COc1ccc(-c2oc3ccccc3c2C#Cc2cncn2C)cc1`, the AC50 was 4.37 µM. For the compound `O=C(NCCN1CCOCC1)NC1(C(F)(F)F)Oc2ccc(Cl)cc2O1` (stereo not drawn), the concentration at half-maximal activity (AC50) is 14 µM. As for `NC1=NC[C@@H](CC2CCCCC2)N1CCc1cc(C(F)(F)F)cc(C(F)(F)F)c1`, the AC50 was 2.74 µM. Consider `Cc1ccc(C=Nc2ccccc2C(N)=O)s1`, for which the AC50 is 2.79 µM. The value for `CCC1CCCCN1S(=O)(=O)c1ccc(S(=O)(=O)N(Cc2ccccn2)CC2CCCO2)cc1` (stereo not drawn) was 2.49 µM. In the case of `Cc1cccc(NC(=S)NCC(C)CSc2ccc(Cl)cc2)c1` (stereo not drawn), the AC50 was 7.05 µM.

Consider `Cc1cccn2c(/C=N/OCc3cccc(F)c3)c(-c3ccc(Cl)cc3)nc12`, for which the concentration at half-maximal activity (AC50) is 10.5 µM. With `CCc1ccc2c(c1)[C@H]1OCC[C@H]1[C@@H](c1cccs1)N2`, the AC50 is 2.06 µM.

Turning to `CC(C)Oc1ccc(CNC(=O)CC(c2ccccc2)c2cc(Cl)ccc2O)cc1` (stereo not drawn), the AC50 was 5.58 µM. With `O=c1c2ccccc2nc(/C=C/c2ccc(Br)cc2)n1CCO`, the AC50 is 16.6 µM. As to `c1ccc(C[C@H]2CNCCN2CCCCC2CCCCC2)cc1`, the AC50 was 6.83 µM. `O=C(NCCCSc1ccccc1)c1cc(Br)ccc1O`: the AC50 is 5.85 µM. For the compound `COC(=O)c1ccccc1NC(=O)c1nc(S(=O)(=O)Cc2ccccc2)ncc1Cl`, the AC50 was 3.25 µM. As to `Cc1cccc(-c2oc3ccccc3c2C#CCCCCO)c1`, the AC50 is 7.62 µM. With `S=C(NCCC(c1ccccc1)c1ccccc1)Nc1cccc(Cl)c1` the figure was 2.79 µM; with `CCCCCCc1cc2cc(-c3nnc(-c4cc(OC)c(OC)c(OC)c4)o3)c(=O)oc2cc1O`, 5.89 µM.

With `O=c1c2ccccc2oc2ccc(C#CC3(O)CCCCC3)cc12`, the AC50 is 7.11 µM. For `CCOc1cccc(/C=N/NC(=O)c2cc(C3CC3)[nH]n2)c1O`, the AC50 is 5.72 µM.

On to `CC1CCC2C(=O)N(c3ccc(NC4CCCCC4)c([N+](=O)[O-])c3)C(=O)C2C1` (stereo not drawn), for which the AC50 was 4.01 µM. Take `COc1ccc2c(C)nc(Nc3nc(C)c(C)c(=O)[nH]3)nc2c1`: the AC50 was 7.16 µM.

Values taken from PubChem BioAssay AID463074 (Broad Institute, 2010).
